Source: US7384961B2, “Saturated and unsaturated heteroarylcycloalkylmethyl amines as anti-depressants” (priority 2002, dated 2008)
Structures can show the parent of a compound that is named as a salt. Where two headings read alike, the source gives them in different places.

Key:
NA re-uptake = target: T1, NA re-uptake (Rattus norvegicus, UniProt Q63380); assay: Inhibition of NA re-uptake in rat brain synaptosomes (P2 fraction, hypothalamus); type: biochemical; conditions: for inhibition at 10 µM: 10 μmol/l
T1 construct: synaptosomes are freshly isolated from rat brain areas; from tissue; host or cells: rat brain synaptosomes (P2 fraction), hypothalamus
From the text: (§1) a) Investigations of the Inhibition of the Re-uptake of 5-HT and NA
(§2) In order to be able to carry out these in vitro studies, synaptosomes are freshly isolated from rat brain areas. […] These vesicular particles are isolated from the hypothalamus for the NA re-uptake and from the medulla +pons region of male rat brains for the 5-HT re-uptake.
(§3) The IC50 values were obtained with the aid of the “Figure P” computer program (version 6.0, Biosoft, Cambridge, England). […] The “Ligand” computer program (version 4, Biosoft, England) was used to obtain KD values.

5-HT re-uptake = target: T2, 5-HT re-uptake (Rattus norvegicus, UniProt P31652); assay: Inhibition of 5-HT re-uptake in rat brain synaptosomes (P2 fraction, medulla + pons); type: biochemical; conditions: for inhibition at 10 µM: 10 μmol/l
T2 construct: synaptosomes are freshly isolated from rat brain areas; from tissue; host or cells: rat brain synaptosomes (P2 fraction), medulla + pons region, male rats
From the text: as §1, §2, §3

mice = assay: Formalin test in mice (analgesic action, chronic pain component); type: in vivo; conditions: for ED50: Mus musculus, iv, read-out: Inhibition of the nociceptive behaviour versus control, ED50 value
Protocol: b) Investigations of the Analgesic Actions in the Formalin Test in Mice
The formalin test (Dubuisson, D. and Dennis, S. G., 1977, Pain, 4, 161-174) represents a model of acute and chronic pain. The chronic pain component was evaluated in the investigations described here.
A biphase nociceptive reaction which is recorded by observing three behaviour patterns which can be clearly differentiated from one another is induced in freely mobile test animals by a single formalin injection into the dorsal side of a hind paw.
Formalin is administered subcutaneously into the dorsal side of the right hind paw of each animal in a volume of 20 μl and a concentration of 1%.
The specific changes in behaviour which differ from the normal behaviour (score 0), such as raising (score 1) and shaking the paw (score 2) and biting and licking reactions (score 3), are observed and recorded continuously at component intervals of 3 min for up to 60 min after the administration of formalin. The changes in behaviour are weighted in different ways (score 0-3) and a pain rate (PR) is calculated using the following formula: PR=[(T0×0)+(T1×1)+(T2×2)+(T3×3)]/180.
The group size is 10 animals (n=10).
On the basis of the PR calculations, the action of the substance was determined as the change from a control in percent. The ED50 was determined by means of regression analysis.

T2 sequence (P31652 whole entry): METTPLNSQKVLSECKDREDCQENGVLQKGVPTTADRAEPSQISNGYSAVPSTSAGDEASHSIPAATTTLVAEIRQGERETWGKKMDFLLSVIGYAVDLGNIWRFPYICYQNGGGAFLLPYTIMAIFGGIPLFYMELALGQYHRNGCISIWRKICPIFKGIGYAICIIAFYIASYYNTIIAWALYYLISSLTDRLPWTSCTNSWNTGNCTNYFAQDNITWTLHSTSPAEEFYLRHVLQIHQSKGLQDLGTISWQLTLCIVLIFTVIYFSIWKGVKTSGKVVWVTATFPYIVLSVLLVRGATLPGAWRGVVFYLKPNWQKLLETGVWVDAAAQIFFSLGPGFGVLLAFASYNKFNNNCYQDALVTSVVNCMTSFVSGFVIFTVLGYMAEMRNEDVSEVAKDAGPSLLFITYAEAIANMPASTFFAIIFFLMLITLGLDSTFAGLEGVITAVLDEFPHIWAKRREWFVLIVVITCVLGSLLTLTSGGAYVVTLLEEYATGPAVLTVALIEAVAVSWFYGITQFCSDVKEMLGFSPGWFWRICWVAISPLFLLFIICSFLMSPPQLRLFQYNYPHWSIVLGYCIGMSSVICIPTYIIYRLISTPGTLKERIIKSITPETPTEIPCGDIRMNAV
T1 sequence (Q63380 1-617): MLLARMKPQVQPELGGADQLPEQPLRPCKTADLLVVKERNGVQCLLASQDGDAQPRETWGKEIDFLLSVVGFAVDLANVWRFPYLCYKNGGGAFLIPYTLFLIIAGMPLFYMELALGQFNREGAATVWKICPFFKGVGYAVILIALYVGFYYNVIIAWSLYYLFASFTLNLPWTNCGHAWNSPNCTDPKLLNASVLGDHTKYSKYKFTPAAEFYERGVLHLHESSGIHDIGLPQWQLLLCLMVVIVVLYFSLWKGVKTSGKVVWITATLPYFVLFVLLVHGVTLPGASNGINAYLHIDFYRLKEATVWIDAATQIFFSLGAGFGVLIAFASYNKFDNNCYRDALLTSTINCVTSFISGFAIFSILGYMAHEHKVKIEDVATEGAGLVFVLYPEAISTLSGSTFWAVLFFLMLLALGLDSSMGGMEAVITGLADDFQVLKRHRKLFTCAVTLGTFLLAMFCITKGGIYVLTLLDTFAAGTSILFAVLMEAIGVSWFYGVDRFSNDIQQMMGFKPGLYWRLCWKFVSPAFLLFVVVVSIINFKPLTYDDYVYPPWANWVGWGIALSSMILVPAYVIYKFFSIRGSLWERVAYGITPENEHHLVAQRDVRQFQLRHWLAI

## CN(C)CC1=C(c2cccnc2)CCCCCC1.Cl [Example 32, Dimethyl-(2-pyridin-3-yl-cyclooct-1-enylmethyl)-amine hydrochloride]
NA re-uptake
  inhibition at 10 µM: 55%
5-HT re-uptake
  inhibition at 10 µM: 78%
mice; mice, formalin test
  ED50: 2.77 mg/kg

## CN(C)CC1CCC=C1c1cccnc1 (stereo not drawn) [Example 29, Dimethyl-(2-pyridin-3-yl-cyclopent-2-enylmethyl)-amine hydrochloride]
NA re-uptake
  inhibition at 10 µM: 64%
5-HT re-uptake
  inhibition at 10 µM: 69%

## CN(C)C[C@@H]1CCCC[C@@H]1c1cccnc1 (relative stereo) [Example 6, cis-Dimethyl-(2-pyridin-3-yl-cyclohexylmethyl)amine hydrochloride]
NA re-uptake
  inhibition at 10 µM: 25%
5-HT re-uptake
  inhibition at 10 µM: 94%

## CN(C)CC1=C(c2cncc(O)c2)CCCC1 [Example 64, 5-(2-Dimethylaminomethyl-cyclohex-1-enyl)-pyridin-3-ol hydrochloride]
NA re-uptake
  inhibition at 10 µM: 6%
5-HT re-uptake
  inhibition at 10 µM: 68%

## CN(C)C[C@@H]1CSCC[C@@]1(O)c1cccnc1.Cl (relative stereo) [Example 50, cis-3-Dimethylaminomethyl-4-pyridin-3-yl-tetrahydrothiopyran-4-ol hydrochloride]
NA re-uptake
  NA re-uptake inhibition (10 μmol/l): 29%
5-HT re-uptake
  5-HT re-uptake inhibition (10 μmol/l): 54%
mice; 21.5 mg/kg i.v., mice
  Inhibition of the nociceptive behaviour versus control; % inhibition: 37.0%

## COc1cncc([C@H]2CCCCCC[C@H]2CN(C)C)c1 (relative stereo) [Example 72, cis-[2-(5-Methoxy-pyridin-3-yl)-cyclooctylmethyl] -dimethyl-amine hydrochloride]
NA re-uptake
  inhibition at 10 µM: 53%
5-HT re-uptake
  inhibition at 10 µM: 60%

## CCCN(CCC)CC1=C(c2cccnc2)CCCC1.Cl [Example 65, Dipropyl-(2-pyridin-3-yl-cyclohex-1-enylmethyl)-amine hydrochloride]
NA re-uptake
  inhibition at 10 µM: -8%
5-HT re-uptake
  inhibition at 10 µM: 54%
mice; 4.64 mg/kg i.v., mice
  Inhibition of the nociceptive behaviour versus control; % inhibition: −39.4%

## CN(C)CC1=C(c2cccnc2)CCCCC1.Cl [Example 23, Dimethyl-(2-pyridin-3-yl-cyclohept-1-enylmethyl)-amine hydrochloride]
NA re-uptake
  inhibition at 10 µM: 50%
5-HT re-uptake
  inhibition at 10 µM: 86%
mice
  ED50: 2.44 mg/kg

## COc1cncc([C@@H]2CCCCCC[C@H]2CN(C)C)c1 (relative stereo) [Example 70, trans-[2-(5-Methoxy-pyridin-3-yl)-cyclooctylmethyl]-dimethyl-amine and the corresponding hydrochloride]
NA re-uptake
  NA re-uptake inhibition (10 μmol/l): 52%
5-HT re-uptake
  5-HT re-uptake inhibition (10 μmol/l): 89%

## COc1cncc(C2=CCCCCCC2CN(C)C)c1 (stereo not drawn) [Example 73, [2-(5-Methoxy-pyridin-3-yl)-cyclooct-2-enylmethyl] -dimethyl-amine hydrochloride]
NA re-uptake
  inhibition at 10 µM: 55%
5-HT re-uptake
  inhibition at 10 µM: 89%

## CN(C)CC1CCCC1c1cccnc1.Cl (stereo not drawn) [Example 31, Dimethyl-(2-pyridin-3-yl-cyclopentylmethyl)-amine hydrochloride]
NA re-uptake
  inhibition at 10 µM: 8%
5-HT re-uptake
  inhibition at 10 µM: 70%
mice; 10 mg/kg i.v., mice
  Inhibition of the nociceptive behaviour versus control; % inhibition: 89.7%

## CN(C)C[C@@H]1CCCC[C@H]1c1cccnc1.Cl (relative stereo) [Example 7, trans-Dimethyl-(2-pyridin-3-yl-cyclohexylmethyl)amine hydrochloride]
NA re-uptake
  inhibition at 10 µM: 22%
5-HT re-uptake
  inhibition at 10 µM: 95%
mice
  ED50: 2.55 mg/kg

## CN(CC1=C(c2cccnc2)CCCC1)Cc1ccccc1.Cl [Example 10, Benzylmethyl-(2-pyridin-3-yl-cyclohex-1-enylmethyl)amine hydrochloride]
mice; 10 mg/kg i.v., mice
  Inhibition of the nociceptive behaviour versus control; % inhibition: 66.3%

## COc1cncc(C2=C(CN(C)C)CCCCCC2)c1 [Example 74, [2-(5-Methoxy-pyridin-3-yl)-cyclooct-1-enylmethyl] -dimethyl-amine hydrochloride]
NA re-uptake
  inhibition at 10 µM: 56%
5-HT re-uptake
  inhibition at 10 µM: 72%

## CN(C)CC1CCCCCC=C1c1ccc(Cl)nc1 (stereo not drawn) [Example 71, [2-(6-Chloro-pyridin-3-yl)-cyclooct-2-enylmethyl] -dimethyl-amine hydrochloride]
NA re-uptake
  inhibition at 10 µM: 77%
5-HT re-uptake
  inhibition at 10 µM: 74%

## COc1cncc(C2=CCCCC2CN(C)C)c1 (stereo not drawn) [Example 55, [2-(5-Methoxy-pyridin-3-yl)-cyclohex-2-enylmethyl]-dimethyl-amine hydrochloride]
NA re-uptake
  inhibition at 10 µM: 34%
5-HT re-uptake
  inhibition at 10 µM: 67%

## CN(C)CC1CCCCC=C1c1ccc(Cl)nc1 (stereo not drawn) [Example 48, [2-(6-chloro-pyridin-3-yl)-cyclohept-2-enylmethyl]-dimethyl-amine hydrochloride]
NA re-uptake
  inhibition at 10 µM: 82%
5-HT re-uptake
  inhibition at 10 µM: 81%

## CN(C)CC1CCCCC=C1c1cccnc1.Cl (stereo not drawn) [Example 24, Dimethyl-(2-pyridin-3-yl-cyclohept-2-enylmethyl)-amine hydrochloride]
NA re-uptake
  inhibition at 10 µM: 19%
5-HT re-uptake
  inhibition at 10 µM: 67%
mice
  ED50: 5.4 mg/kg

## CN(C)CC1=C(c2ccc(Cl)nc2)CCCC1 [Example 49, [2-(6-Chloro-pyridin-3-yl)-cyclohex-1-enylmethyl]-dimethyl-amine hydrochloride]
NA re-uptake
  inhibition at 10 µM: 67%
5-HT re-uptake
  inhibition at 10 µM: 55%

## CN(C)CC1CCCCCC1(Cl)c1ccc(Cl)nc1 (stereo not drawn) [Example 13, [2-Chloro-2-(6-chloro-pyridin-3-yl)-cycloheptylmethyl]-dimethyl-amine hydrochloride]
NA re-uptake
  inhibition at 10 µM: 75%
5-HT re-uptake
  inhibition at 10 µM: 38%

## CN(C)C[C@@H]1CCCCC[C@H]1c1cccnc1 (relative stereo) [Example 27, trans-Dimethyl-(2-pyridin-3-yl-cycloheptylmethyl)-amine hydrochloride]
NA re-uptake
  inhibition at 10 µM: 54%
5-HT re-uptake
  inhibition at 10 µM: 88%

## CN(C)CC1=C(c2ccncc2)CCCCC1 [Example 38, Dimethyl-(2-pyridin-4-yl-cyclohept-1-enylmethyl)-amine hydrochloride]
NA re-uptake
  inhibition at 10 µM: 73%
5-HT re-uptake
  inhibition at 10 µM: 76%

## COc1cncc(C2CCCCC2CN(C)C)c1 (stereo not drawn) [Example 62, [2-(5-Methoxy-pyridin-3-yl)-cyclohexylmethyl] -dimethyl-amine hydrochloride]
NA re-uptake
  inhibition at 10 µM: 13%
5-HT re-uptake
  inhibition at 10 µM: 77%

## CN(C)CC1CCCCCC=C1c1cccnc1 (stereo not drawn) [Example 33, Dimethyl-(2-pyridin-3-yl-cyclooct-2-enylmethyl)-amine hydrochloride]
NA re-uptake
  inhibition at 10 µM: 50%
5-HT re-uptake
  inhibition at 10 µM: 74%

## CNCC1=C(c2cccnc2)CCCC1.Cl [Example 2, Methyl-(2-pyridin-3-yl-cyclohex-1-enylmethyl)amine hydrochloride]
NA re-uptake
  inhibition at 10 µM: 15%
5-HT re-uptake
  inhibition at 10 µM: 69%
mice; 21.5 mg/kg i.v., mice
  Inhibition of the nociceptive behaviour versus control; % inhibition: 88%

## CN(C)CC1CCCCC1(Cl)c1ccc(Cl)nc1 (stereo not drawn) [Example 15, [2-Chloro-2-(6-chloro-pyridin-3-yl)-cyclohexylmethyl]-dimethyl-amine hydrochloride]
NA re-uptake
  inhibition at 10 µM: 53%
5-HT re-uptake
  inhibition at 10 µM: 51%

## CN(C)C[C@@H]1CCCCC[C@@H]1c1cccnc1 (relative stereo) [Example 26, cis-Dimethyl-(2-pyridin-3-yl-cycloheptylmethyl)-amine hydrochloride]
NA re-uptake
  inhibition at 10 µM: 28%
5-HT re-uptake
  inhibition at 10 µM: 82%

## COc1cncc(C2CCCCCC2CN(C)C)c1 (stereo not drawn) [Example 60, [2-(5-Methoxy-pyridin-3-yl)-cycloheptylmethyl] -dimethyl-amine hydrochloride]
NA re-uptake
  inhibition at 10 µM: 30%
5-HT re-uptake
  inhibition at 10 µM: 75%

## COc1cncc(C2=C(CN(C)C)CCCC2)c1 [Example 54, [2-(5-Methoxy-pyridin-3-yl)-cyclohex-1-enylmethyl]-dimethyl-amine hydrochloride]
NA re-uptake
  inhibition at 10 µM: 17%
5-HT re-uptake
  inhibition at 10 µM: 85%

## CN(C)CC1=C(c2ccc(Cl)nc2)CCCC1.Cl [Example 68, [2-(6-Chloro-pyridin-3-yl)-cyclohex-1-enylmethyl]-dimethyl-amine hydrochloride]
NA re-uptake; hydrochloride
  NA re-uptake inhibition (10 μmol/l): 62%
5-HT re-uptake; hydrochloride
  5-HT re-uptake inhibition (10 μmol/l): 67%

## CN(C)CC1CCCCC1(Cl)c1cccnc1 (stereo not drawn) [Example 14, (2-Chloro-2-pyridin-3-yl-cyclohexylmethyl)-dimethyl-amine hydrochloride]
NA re-uptake
  inhibition at 10 µM: 27%
5-HT re-uptake
  inhibition at 10 µM: 73%

## CN(C)CC1=C(c2cccnc2)CCC1.Cl [Example 28, Dimethyl-(2-pyridin-3-yl-cyclopent-1-enylmethyl)-amine hydrochloride]
NA re-uptake
  inhibition at 10 µM: 29%
5-HT re-uptake
  inhibition at 10 µM: 83%
mice; 10 mg/kg i.v., mice
  Inhibition of the nociceptive behaviour versus control; % inhibition: 92.6%
